Drawing on PubChem BioAssay AID602445 (National Center for Advancing Translational Sciences (NCATS), 2012), this text covers percent remaining for one compound.

The subject of this data set is mouse liver microsomes with NADPH, percent remaining. The experiment in a line: High Content Assay for Compounds that inhibit the Assembly of the Perinucleolar Compartment: Mouse Liver Microsome Stability with NADPH. To be noted: active compounds read low. An excerpt: The perinucleolar compartment (PNC) is a non-membrane-bound nuclear subdomain that is associated with but structurally distinct from the nucleolus. The PNC is a heritable trait, in which the number of PNCs per cell in daughter cells often mimics that of their mother cells. The PNC is heterogeneous in shape, is stable through interphase, disassembles during mitosis, and reassembles in early G1. The PNC is concentrated with newly synthesized RNA polymerase III (pol III) RNAs (MRP RNA, RNAse P H1 RNA, hY RNAs[hY1, 2, 5], Alu RNA, and SRP [7SL] RNA) and RNA binding proteins (nucleolin, PTB, CUG-BP, KSRP, Raver1, Raver2, and Rod).
Extensive in vitro studies have shown that the PNC is unique to tumor cells and preferentially forms in tumor cells derived from solid tissues. Examination of cancer cell lines from various origins and malignant capacities has shown that PNC prevalence correlates with the malignancy of tumors and has the potential to be developed as a pan-cancer prognostic marker.
Mouse liver microsomes are generated from lysed mouse liver. […]
1uM of compound in incubated in mouse liver microsome; the reference compound is ketanserin. […] Samples are analyzed with LC-MS/MS.

Regarding `N=c1c2c(-c3ccccc3)c(-c3ccccc3)n(Cc3ccccc3)c2ncn1C1CCC(O)CC1` (stereo unspecified), the percent remaining was 107%.
